Measured values taken from ChEMBL document CHEMBL1629631, “In vitro activities of various antifungal drugs against Aspergillus terreus: Global assessment using the methodology of the European committee on antimicrobial susceptibility testing” (2009).
In brackets after ≈: the same amount, converted by molar mass. Numbered stars: 1 amine (or outer) side, 2 acyl side, 3 side chain; on linkers, the order of the positions; unused ones are H or OH. Bridge positions count the residues as written; N and C are the ends. Square brackets hold non-standard residues; d marks the D form. Peptide text beside a SMILES is read from it. * marks the point of attachment. hTyr(3S-OH,4S-OH,3'-OSO3H) = N[C@H](C(=O)O)[C@H](O)[C@@H](O)c1ccc(O)c(OS(=O)(=O)O)c1; pTerphenylCO(4''-OnC5H11) = CCCCCOc1ccc(-c2ccc(-c3ccc(C(=O)*)cc3)cc2)cc1; Orn(4R-OH,5R-OH) = O=C([C@H](C[C@@H](O)[C@@H](O)N[*:3])N[*:1])[*:2]; hTyr(3S-OH,4S-OH) = N[C@H](C(=O)O)[C@H](O)[C@@H](O)c1ccc(O)cc1; Pro(3S-OH,4S-Me) = C[C@H]1CN[C@H](C(=O)O)[C@H]1O; X1 = CCCCCOc1ccc(-c2cc(-c3ccc(C(=O)*)cc3)no2)cc1; Gln(3R-OH) = NC(=O)C[C@@H](O)[C@H](N)C(=O)O; Hyp = O=C(O)[C@@H]1C[C@@H](O)CN1

Tests used:
Aspergillus terreus [1] = assay: Antimicrobial activity against Aspergillus terreus environmental isolate after 48 hrs by EUCAST test; type: functional
Aspergillus terreus [2] = assay: Antimicrobial activity against Aspergillus terreus clinical isolate after 48 hrs by EUCAST test; type: functional

Row | MIC50 (Aspergillus terreus [1]) [µg/mL] | MIC90 (Aspergillus terreus [1]) [µg/mL] | MIC50 (Aspergillus terreus [2]) [µg/mL] | MIC90 (Aspergillus terreus [2]) [µg/mL] | Compound
1 | 2 (≈ 2.16 µM) | 2 (≈ 2.16 µM) | 2 (≈ 2.16 µM) | 2 (≈ 2.16 µM) | C[C@@H]1[C@H](O)[C@@H](C)/C=C/C=C/C=C/C=C/C=C/C=C/C=C/[C@H](O[C@@H]2O[C@H](C)[C@@H](O)[C@H](N)[C@@H]2O)C[C@@H]2O[C@](O)(C[C@@H](O)C[C@@H](O)[C@H](O)CC[C@@H](O)C[C@@H](O)CC(=O)O[C@H]1C)C[C@H](O)[C@H]2C(=O)O [AMPHOTERICIN B]
2 | 1 (≈ 0.915 µM) | 2 (≈ 1.83 µM) | 1 (≈ 0.915 µM) | 2 (≈ 1.83 µM) | CC[C@H](C)C[C@H](C)CCCCCCCCC(=O)N[C@H]1C[C@@H](O)[C@@H](NCCN)NC(=O)[C@@H]2[C@@H](O)CCN2C(=O)[C@H]([C@H](O)CCN)NC(=O)[C@H]([C@H](O)[C@@H](O)c2ccc(O)cc2)NC(=O)[C@@H]2C[C@@H](O)CN2C(=O)[C@H]([C@@H](C)O)NC1=O [CASPOFUNGIN]
3 | 0.125 (≈ 0.177 µM) | 0.5 (≈ 0.709 µM) | 0.125 (≈ 0.177 µM) | 0.5 (≈ 0.709 µM) | CCC(C)n1ncn(-c2ccc(N3CCN(c4ccc(OCC5COC(Cn6cncn6)(c6ccc(Cl)cc6Cl)O5)cc4)CC3)cc2)c1=O (stereo unspecified) [ITRACONAZOLE]
4 | 0.015 (≈ 0.0118 µM) | 0.03 (≈ 0.0236 µM) | 0.015 (≈ 0.0118 µM) | 0.03 (≈ 0.0236 µM) | CCCCCOc1ccc(-c2cc(-c3ccc(C(=O)N[C@H]4C[C@@H](O)[C@@H](O)NC(=O)[C@@H]5[C@@H](O)[C@@H](C)CN5C(=O)[C@H]([C@H](O)CC(N)=O)NC(=O)[C@H]([C@H](O)[C@@H](O)c5ccc(O)c(OS(=O)(=O)O)c5)NC(=O)[C@@H]5C[C@@H](O)CN5C(=O)[C@H]([C@@H](C)O)NC4=O)cc3)no2)cc1 [MICAFUNGIN] (X1-[Orn(4R-OH,5R-OH)]T[Hyp][hTyr(3S-OH,4S-OH,3'-OSO3H)][Gln(3R-OH)][Pro(3S-OH,4S-Me)]; lactam 1-C)
5 | 1 (≈ 2.29 µM) | 2 (≈ 4.57 µM) | 1 (≈ 2.29 µM) | 2 (≈ 4.57 µM) | C[C@@H](c1nc(-c2ccc(C#N)cc2)cs1)[C@](O)(Cn1cncn1)c1ccc(F)cc1F [RAVUCONAZOLE]
6 | 0.25 (≈ 0.858 µM) | 0.5 (≈ 1.72 µM) | 0.25 (≈ 0.858 µM) | 0.5 (≈ 1.72 µM) | CN(C/C=C/C#CC(C)(C)C)Cc1cccc2ccccc12 [TERBINAFINE]

Row | Compound | MIC50 (Aspergillus terreus [1]) [µg/mL] | MIC90 (Aspergillus terreus [1]) [µg/mL] | MIC50 (Aspergillus terreus [2]) [µg/mL] | MIC90 (Aspergillus terreus [2]) [µg/mL]
7 | CCCCCOc1ccc(-c2ccc(-c3ccc(C(=O)N[C@H]4C[C@@H](O)[C@@H](O)NC(=O)[C@@H]5[C@@H](O)[C@@H](C)CN5C(=O)[C@H]([C@@H](C)O)NC(=O)[C@H]([C@H](O)[C@@H](O)c5ccc(O)cc5)NC(=O)[C@@H]5C[C@@H](O)CN5C(=O)[C@H]([C@@H](C)O)NC4=O)cc3)cc2)cc1 [ANIDULAFUNGIN] ({pTerphenylCO(4''-OnC5H11)}-[Orn(4R-OH,5R-OH)]T[Hyp][hTyr(3S-OH,4S-OH)]T[Pro(3S-OH,4S-Me)]; lactam 1-C) | 0.015 (≈ 0.0132 µM) | 0.03 (≈ 0.0263 µM) | 0.015 (≈ 0.0132 µM) | 0.03 (≈ 0.0263 µM)
8 | CC[C@@H]([C@H](C)O)n1ncn(-c2ccc(N3CCN(c4ccc(OC[C@@H]5CO[C@@](Cn6cncn6)(c6ccc(F)cc6F)C5)cc4)CC3)cc2)c1=O [POSACONAZOLE] | 0.12 (≈ 0.171 µM) | 0.12 (≈ 0.171 µM) | 0.12 (≈ 0.171 µM) | 0.12 (≈ 0.171 µM)
9 | C[C@@H](c1ncncc1F)[C@](O)(Cn1cncn1)c1ccc(F)cc1F [VORICONAZOLE] | 1 (≈ 2.86 µM) | 2 (≈ 5.73 µM) | 1 (≈ 2.86 µM) | 2 (≈ 5.73 µM)
